Counter-ions that a name gives are not always drawn.

The test deals with HBsAg. As to the kind of experiment: HBsAg assay (secreted HBsAg by CLIA in HepG2.2.15 cells). The test is classed as cell-based, hepatitis B virus (HBV). The note with it: Hepatitis B virus, HepG2.2.15, 96 h. Here is the method: HepG2.2.15 cells (Sells et al, Proc Natl Acad Sci USA. 1987 February; 84(4):1005-9), a constitutively HBV-expressing cell line, were cultured in DMEM medium supplemented with 10% FBS and 400 μg/mL G418, and maintained in 5% CO2 at 37° C.
HepG2.2.15 cells were seeded into 96-well plates at 3×10^4 cells/well. The next day, the cells were treated with a five-fold serial dilution series of the compound in DMSO. The final DMSO concentration in all wells was 0.5% and 0.5% DMSO was used as no drug control. After four days of incubation with compounds, the supernatants were harvested and measured for HBsAg concentration
The HBsAg chemiluminescence immunoassay (CLIA) kit was used to measure the levels of secreted HBsAg. Specifically, 50 μL of culture supernatant was transferred to the CLIA assay plate and 50 μL of enzyme conjugate reagent was added into each well. The plates were sealed and incubated for 1 hour at room temperature. The supernatant-enzyme-mixture was discarded and wells were washed for 6 times. The residual liquid was removed by plating on tissue paper. 25 μL of substrate A and B were added into each well. Luminance was measured using a spectrometer (Tecan Infinite® F200) after 10 minutes incubation. IC50 value was extrapolated based the dose-response curves generated from the data.

Usually IC50 stands for the midpoint of a concentration-inhibition curve. A low value points to higher potency. `COc1cc2c(cc1-c1cn[nH]c1)CC(C(C)C)n1cc(C(=O)O)c(=O)cc1-2` (stereo not shown) [Example 1, 6-isopropyl-10-methoxy-2-oxo-9-(1H-pyrazol-4-yl)-6,7-dihydro-2H-pyrido[2,1-a]isoquinoline-3-carboxylic acid]: half-maximal inhibition (IC50) required 14 nM.

In turn, `COc1cc2c(cc1-c1cnn(CC(F)(F)F)c1)CC(C(C)C)n1cc(C(=O)O)c(=O)cc1-2` (stereo not shown) [Example 2, 6-isopropyl-10-methoxy-2-oxo-9-(1-(2,2,2-trifluoroethyl)-1H-pyrazol-4-yl)-6,7-dihydro-2H-pyrido[2,1-a]isoquinoline-3-carboxylic acid] displayed an IC50 of 8 nM.

Consider `COCCn1cc(-c2cc3c(cc2OC)-c2cc(=O)c(C(=O)O)cn2C(C(C)C)C3)cn1` (stereo not shown) [Example 3, 6-isopropyl-10-methoxy-9-(1-(2-methoxyethyl)-1H-pyrazol-4-yl)-2-oxo-6,7-dihydro-2H-pyrido[2,1-a]isoquinoline-3-carboxylic acid], for which inhibition was half-maximal at 18 nM (IC50).

Regarding `COc1cc2c(cc1-c1cnn(CCCO)c1)CC(C(C)C)n1cc(C(=O)O)c(=O)cc1-2` (stereo not shown) [Example 4, 9-(1-(3-hydroxypropyl)-1H-pyrazol-4-yl)-6-isopropyl-10-methoxy-2-oxo-6,7-dihydro-2H-pyrido[2,1-a]isoquinoline-3-carboxxylic acid], the IC50 came out at 24 nM.

`COc1cc2c(cc1-c1cnn(CC(C)C)c1)CC(C(C)C)n1cc(C(=O)O)c(=O)cc1-2` (stereo not shown) [Example 5, 9-(1-isobutyl-1H-pyrazol-4-yl)-6-isopropyl-10-methoxy-2-oxo-6,7-dihydro-2H-pyrido[2,1-a]isoquinoline-3-carboxylic acid] registered an IC50 of 14 nM.

In the case of `CCCn1cc(-c2cc3c(cc2OC)-c2cc(=O)c(C(=O)O)cn2C(C(C)C)C3)cn1` (stereo not shown) [Example 6, 6-isopropyl-10-methoxy-2-oxo-9-(1-propyl-1H-pyrazol-4-yl)-6,7-dihydro-2H-pyrido[2,1-a]isoquinoline-3-carboxylic acid], half-maximal inhibition (IC50) required 6 nM.

Consider `COc1cc2c(cc1-c1ccc(C)nc1)CC(C(C)C)n1cc(C(=O)O)c(=O)cc1-2` (stereo not shown) [Example 7, 6-isopropyl-10-methoxy-9-(6-methylpyridin-3-yl)-2-oxo-6,7-dihydro-2H-pyrido[2,1-a]isoquinoline-3-carboxylic acid], for which inhibition was half-maximal at 36 nM (IC50).

On to `COc1cc2c(cc1-c1cn[nH]c1)CC(C(C)(C)C)n1cc(C(=O)O)c(=O)cc1-2` (stereo not shown) [Example 8, 6-(tert-butyl)-10-methoxy-2-oxo-9-(1H-pyrazol-4-yl)-6,7-dihydro-2H-pyrido[2,1-a]isoquinoline-3-carboxylic acid], for which the IC50 is 9 nM.

For the molecule `COc1cc2c(cc1-c1cnn(CCCO)c1)CC(C(C)(C)C)n1cc(C(=O)O)c(=O)cc1-2` (stereo not shown) [Example 9, 6-(tert-butyl)-9-(1-(3-hydroxypropyl)-1H-pyrazol-4-yl)-10-methoxy-2-oxo-6,7-dihydro-2H-pyrido[2,1-a]isoquinoline-3-carboxylic acid], 290 nM corresponded to half-maximal inhibition (IC50).

Molecule `COc1cc2c(cc1-c1cnn(CC(F)(F)F)c1)CC(C(C)(C)C)n1cc(C(=O)O)c(=O)cc1-2` (stereo not shown) [Example 10, 6-(tert-butyl)-10-methoxy-2-oxo-9-(1-(2,2,2-trifluoroethyl)-1H-pyrazol-4-yl)-6,7-dihydro-2H-pyrido[2,1-a]isoquinoline-3-carboxylic acid] showed an IC50 of 6 nM.

Take `COc1cc2c(cc1-c1cnn(C3COC3)c1)CC(C(C)(C)C)n1cc(C(=O)O)c(=O)cc1-2` (stereo not shown) [Example 11, 6-(tert-butyl)-10-methoxy-9-(1-(oxetan-3-yl)-1H-pyrazol-4-yl)-2-oxo-6,7-dihydro-2H-pyrido[2,1-a]isoquinoline-2-carboxylic acid]: half-maximal inhibition (IC50) was put at 3 nM.

As for `COc1cc2c(cc1-c1cnn(CC(C)O)c1)CC(C(C)(C)C)n1cc(C(=O)O)c(=O)cc1-2` (stereo not shown) [Example 12, 6-(tert-butyl)-9-(1-(2-hydroxypropyl)-1H-pyrazol-4-yl)-10-methoxy-2-oxo-6,7-dihydro-2H-pyrido[2,1-a]isoquinoline-3-carboxylic acid], the IC50 came out at 2 nM.

Regarding `COc1cc2c(cc1-c1ccnn1C)CC(C(C)(C)C)n1cc(C(=O)O)c(=O)cc1-2` (stereo not shown) [Example 13, 6-(tert-butyl)-10-methoxy-9-(1-methyl-1H-pyrazol-5-yl)-2-oxo-6,7-dihydro-2H-pyrido[2,1-a]isoquinoline-3-carboxylic acid], half-maximal inhibition (IC50) was put at 18 nM.

Molecule `COc1cc2c(cc1-c1cnn(C(F)F)c1)CC(C(C)(C)C)n1cc(C(=O)O)c(=O)cc1-2` (stereo not shown) [Example 14, 6-(tert-butyl)-9-(1-(difluoromethyl)-1H-pyrazol-4-yl)-10-methoxy-2-oxo-6,7-dihydro-2H-pyrido[2,1-a]isoquinoline-3-carboxylic acid] registered a 50% inhibitory concentration (IC50) of 2 nM.

In the case of `COc1cc2c(cc1-c1cc(C)nn1C)CC(C(C)(C)C)n1cc(C(=O)O)c(=O)cc1-2` (stereo not shown) [Example 15, 6-(tert-butyl)-9-(1,3-dimethyl-1H-pyrazol-5-yl)-10-methoxy-2-oxo-6,7-dihydro-2H-pyrido[2,1-a]isoquinoline-3-carboxylic acid], half-maximal inhibition (IC50) was put at 4 nM.

In turn, `COc1cc2c(cc1-c1cnn(CCN3CCOCC3)c1)CC(C(C)(C)C)n1cc(C(=O)O)c(=O)cc1-2` (stereo not shown) [Example 16, 6-(tert-butyl)-10-methoxy-9-(1-(2-morpholinylethyl)-1H-pyrazol-4-yl)-2-oxo-6,7-dihydro-2H-pyrido[2,1-a]isoquinoline-3-carboxylaic acid] returned an IC50 of 2 nM.

Regarding `COc1cc2c(cc1-c1cnn(C3CCNCC3)c1)CC(C(C)(C)C)n1cc(C(=O)O)c(=O)cc1-2` (stereo not shown) [Example 17, 6-(tert-butyl)-10-methoxy-2-oxo-9-(1-(piperidin-4-yl)-1H-pyrazol-4-yl)-6,7-dihydro-2H-pyrido[2,1-a]isoquinoline-3-carboxylic acid hydrochloride], the IC50 was found to be 25 nM.

Consider `CCOC(=O)CCn1cc(-c2cc3c(cc2OC)-c2cc(=O)c(C(=O)O)cn2C(C(C)(C)C)C3)cn1` (stereo not shown) [Example 23, 6-(tert-butyl)-9-(1-(3-ethoxy-3-oxopropyl)-1H-pyrazol-4-yl)-10-methoxy-2-oxo-6,7-dihydro-2H-pyrido[2,1-a]isoquinoline-3-carboxylic acid], for which the IC50 turned out to be 40 nM.

Consider `COc1cc2c(cc1-c1cnn(C(C)C(=O)O)c1)CC(C(C)(C)C)n1cc(C(=O)O)c(=O)cc1-2` (stereo not shown) [Example 26, 6-(tert-butyl)-9-(1-(1-carboxyethyl)-1H-pyrazol-4-yl)-10-methoxy-2-oxo-6,7-dihydro-2H-pyrido[2,1-a]isoquinoline-3-carboxylic acid], for which the IC50 worked out at 8 nM.

As to `COc1cc2c(cc1-c1cnn(C(C)(C)C(=O)O)c1)CC(C(C)(C)C)n1cc(C(=O)O)c(=O)cc1-2` (stereo not shown) [Example 27, 6-(tert-butyl)-9-(1-(2-carboxyprop-2-yl)-1H-pyrazol-4-yl)-10-methoxy-2-oxo-6,7-dihydro-2H-pyrido[2,1-a]isoquinoline-3-carboxylic acid], it took 4 nM to reach half-maximal inhibition (IC50).

The molecule `COc1cc2c(cc1-c1nc[nH]n1)CC(C(C)(C)C)n1cc(C(=O)O)c(=O)cc1-2` (stereo not shown) [Example 29, 6-(tert-butyl)-10-methoxy-2-oxo-9-(1H-1,2,4-triazol-3-yl)-6,7-dihydro-2H-pyrido[2,1-a]isoquinoline-3-carboxylic acid] gave an IC50 of 12 nM.

As to `COc1cc2c(cc1-c1ncn(CC(=O)O)n1)CC(C(C)(C)C)n1cc(C(=O)O)c(=O)cc1-2` (stereo not shown) [Example 30, 6-(tert-butyl)-9-(1-(carboxymethyl)-1H-1,2,4-triazol-3-yl)-10-methoxy-2-oxo-6,7-dihydro-2H-pyrido[2,1-a]isoquinoline-3-carboxylic acid], the IC50 worked out at 13 nM.

For `COc1cc2c(cc1-c1ccccc1)CC(C(C)(C)C)n1cc(C(=O)O)c(=O)cc1-2` (stereo not shown) [Example 33, 6-(tert-butyl)-10-methoxy-2-oxo-9-phenyl-6,7-dihydro-2H-pyrido[2,1-a]isoquinoline-3-carboxylic acid], the IC50 was determined as 20 nM.

`CCc1ccc(-c2cc3c(cc2OC)-c2cc(=O)c(C(=O)O)cn2C(C(C)(C)C)C3)cc1` (stereo not shown) [Example 34, 6-(tert-butyl)-9-(4-ethylphenyl)-10-methoxy-2-oxo-6,7-dihydro-2H-pyrido[2,1-a]isoquinoline-3-carboxylic acid] gave an IC50 of 36 nM.

On to `COc1ccc(-c2cc3c(cc2OC)-c2cc(=O)c(C(=O)O)cn2C(C(C)(C)C)C3)cc1` (stereo not shown) [Example 35, 6-(tert-butyl)-10-methoxy-9-(4-methoxyphenyl)-2-oxo-6,7-dihydro-2H-pyrido[2,1-a]isoquinoline-3-carboxylic acid], for which inhibition was half-maximal at 290 nM (IC50).

As to `COc1cccc(-c2cc3c(cc2OC)-c2cc(=O)c(C(=O)O)cn2C(C(C)(C)C)C3)c1` (stereo not shown) [Example 36, 6-(tert-butyl)-10-methoxy-9-(3-methoxyphenyl)-2-oxo-6,7-dihydro-2H-pyrido[2,1-a]isoquinoline-3-carboxylic acid], the IC50 was 10 nM.

In turn, `COc1cc2c(cc1-c1ccnc(C)c1)CC(C(C)(C)C)n1cc(C(=O)O)c(=O)cc1-2` (stereo not shown) [Example 38, 6-(tert-butyl)-10-methoxy-9-(2-methylpyridin-4-yl)-2-oxo-6,7-dihydro-2H-pyrido[2,1-a]isoquinoline-3-carboxylic acid] returned an IC50 of 5 nM.

In turn, `COc1cc2c(cc1-c1cccnc1C)CC(C(C)(C)C)n1cc(C(=O)O)c(=O)cc1-2` (stereo not shown) [Example 39, 6-(tert-butyl)-10-methoxy-9-(2-methylpyridin-3-yl)-2-oxo-6,7-dihydro-2H-pyrido[2,1-a]isoquinoline-3-carboxylic acid] had an IC50 of 25 nM.
